Columns and labels:
CCRF-CEM = experiment: Cytotoxic MTS assay, CCRF-CEM; type: cell-based; settings: Homo sapiens, 72 h, T-lymphoblastic leukemia
Excerpt: (§1) Cytotoxic activity of all synthesized compounds was investigated in vitro against eight human cancer cell lines and two non-tumor fibroblasts using the standard MTS test (Table 1). The cancer cell lines were derived from T-lymphoblastic leukemia CCRF-CEM, leukemia K562 and their multiresistant counterparts expressing P-glycoprotein, MRP1 and LRP proteins (CEM-DNR, K562-TAX), solid tumors including lung (A549) and colon (HCT116, HCT116p53-/-) carcinomas, osteosarcoma cell line (U2OS), and for comparison, tests were performed on two human non-cancer fibroblast cell lines (BJ, MRC-5).
(§2) Biological assays were performed in concordance with our previous publications [[29], [58]; [60]; [61]]. All cells (if not indicated otherwise) were purchased from the American Tissue Culture Collection (ATCC). The CCRF-CEM line is derived from T lymphoblastic leukemia, evincing high chemosenzitivity, K562 represent cells from an acute myeloid leukemia patient sample with bcr-abl translocation, U2OS line is derived from osteosarcoma, HCT116 is colorectal tumor cell line and its p53 gene knock-down counterpart (HCT116p53-/-, Horizon Discovery Ltd, UK) is a model of human cancers with p53 mutation frequently associated with poor prognosis, A549 line is lung adenocarcinoma. The daunorubicin resistant subline of CCRF-CEM cells (CEM-DNR bulk) and paclitaxel resistant subline K562-TAX were selected in our laboratory by the cultivation of maternal cell lines in increasing concentrations of daunorubicine or paclitaxel, respectively. The CEM-DNR bulk cells overexpress MRP-1 and P-glycoprotein protein, while K562-TAX cells overexpress P-glycoprotein only. Both proteins belong to the family of ABC transporters and are involved in the primary and/or acquired multidrug resistance phenomenon. MRC-5 and BJ cell lines were used as a non-tumor control and represent human fibroblasts. The cells were maintained in nunc/corning 80 cm^2 plastic tissue culture flasks and cultured in cell culture medium according to ATCC or Horizon recommendations (DMEM/RPMI 1640 with 5 g/L glucose, 2 mM glutamine, 100 U/mL penicillin, […] streptomycin, 10% fetal calf serum, and NaHCO3).
(§3) MTS assay was performed at Institute of Molecular and Translational Medicine by robotic platform (HighResBiosolutions). Cell suspensions were prepared and diluted according to the particular cell type and the expected target cell density (25000–35000 cells/mL based on cell growth characteristics). Cells were added by automatic pipetor (30 μL) into 384 well microtiter plates. All tested compounds were dissolved in 100% DMSO and four-fold dilutions of the intended test concentration were added in 0.15 μL aliquots at time zero to the microtiter plate wells by the echoacustic non-contact liquid handler Echo550 (Labcyte). The experiments were performed in technical duplicates and three biological replicates at least. The cells were incubated with the tested compounds for 72 h at 37°C, in a 5% CO2 atmosphere at 100% humidity. At the end of the incubation period, the cells were assayed by using the MTS test. Aliquots (5 μL) of the MTS stock solution were pipetted into each well and incubated for additional 1–4 h. After this incubation period, the optical density (OD) was measured at 490 nm with an Envision reader (Perkin Elmer). Tumor cell survival (TCS) was calculated by using the following equation: TCS = (ODdrug-exposed well/mean ODcontrol wells) × 100%. The IC50 value, the drug concentration that is lethal to 50% of the tumor cells, was calculated from the appropriate dose-response curves in Dotmatics software.

CEM-DNR = experiment: Cytotoxic MTS assay, CEM-DNR; type: cell-based; settings: Homo sapiens, 72 h, daunorubicin resistant subline of CCRF-CEM
Excerpt: as §1, §2, §3

K562 = experiment: Cytotoxic MTS assay, K562; type: cell-based; settings: Homo sapiens, 72 h, leukemia
Excerpt: as §1, §2, §3

K562-TAX = experiment: Cytotoxic MTS assay, K562-TAX; type: cell-based; settings: Homo sapiens, 72 h, paclitaxel resistant subline of K562
Excerpt: as §1, §2, §3

A549 = experiment: Cytotoxic MTS assay, A549; type: cell-based; settings: Homo sapiens, 72 h, lung adenocarcinoma
Excerpt: as §1, §2, §3

HCT116 = experiment: Cytotoxic MTS assay, HCT116; type: cell-based; settings: Homo sapiens, HCT-116, 72 h, colorectal tumor
Excerpt: as §1, §2, §3

HCT116p53-/- = experiment: Cytotoxic MTS assay, HCT116p53-/-; type: cell-based; settings: Homo sapiens, 72 h, p53 knock-down colorectal tumor
Excerpt: as §1, §2, §3

U2OS = experiment: Cytotoxic MTS assay, U2OS; type: cell-based; settings: Homo sapiens, 72 h, osteosarcoma
Excerpt: as §1, §2, §3

BJ = experiment: Cytotoxic MTS assay, BJ fibroblasts; type: cell-based; settings: Homo sapiens, 72 h, non-tumor fibroblasts
Excerpt: as §1, §2, §3

MRC-5 = experiment: Cytotoxic MTS assay, MRC-5 fibroblasts; type: cell-based; settings: Homo sapiens, MRC5, 72 h, non-tumor fibroblasts
Excerpt: as §1, §2, §3

CCRF-CEM cells [1] = experiment: Cell cycle and apoptosis analysis (propidium iodide flow cytometry); type: cell-based, human
Method: (§4) Together with the treated cells, control sample containing vehicle was harvested at the same time point after 24 h. After another 24 hours, cells were then washed with cold PBS and fixed in 70% ethanol added dropwise and stored overnight at -20°C. Afterwards, cells were washed in hypotonic citrate buffer, treated with RNAse (50 μg/mL) and stained with propidium iodide. Flow cytometer using a 488 nm single beam laser (Becton Dickinson) was used for measurement. Cell cycle was analyzed in the program ModFitLT (Verity), and apoptosis was measured in logarithmic model expressing percentage of the particles with propidium content lower than cells in G0/G1 phase (<G1) of the cell cycle. Half of the sample was used for pH3^Ser10 antibody (Sigma) labeling and subsequent flow cytometry analysis of mitotic cells.

CCRF-CEM cells [2] = experiment: pH3Ser10 antibody labeling, flow cytometry of mitotic cells; type: cell-based, human
Method: as §4

CCRF-CEM cells [3] = experiment: BrDU incorporation analysis (DNA synthesis); type: cell-based, human; parameters: DNA synthesis: unit not given here
Method: as §4
For this analysis, the same procedure of cultivation as previously was used. Before harvesting, 10 μM 5-bromo-2-deoxyuridine (BrDU), was added to the cells for puls-labeling for 30 min. Cells were fixed with ice-cold 70% ethanol and stored overnight. Before the analysis, cellswere washed with PBS, and resuspended in 2 M HCl for 30 min at room temperature to denature their DNA. Following neutralization with 0.1 M Na2B4O7 (Borax), cells were washed with PBS containing 0.5% Tween-20 and 1% BSA. Staining with primary anti-BrDU antibody (Exbio) for 30 min at room temperature in the dark followed. Cells were than washed with PBS and stained with secondary antimouse-FITC antibody (Sigma). Cells were then washed with PBS again and incubated with propidium iodide (0.1 mg/mL) and RNAse A (0.5 mg/mL) for 1 h at room temperature in the dark and afterwards analyzed by flow cytometry using a 488 nm single beam laser (FACSCalibur, Becton Dickinson).

CCRF-CEM cells [4] = experiment: BrU incorporation analysis (RNA synthesis); type: cell-based, human; parameters: RNA synthesis: unit not given here
Method: as §4
Cells were cultured and treated as above. Before harvesting, pulse-labeling with 1 mM 5-bromouridine (BrU) for 30 min followed. The cells were then fixed in 1% buffered paraformaldehyde with 0.05% of NP-40 in room temperature for 15 min, and then stored in 4°C overnight. Before measurement, they werewashed in PBS with 1% glycin, washed in PBS again, and stained by primary anti-BrDU antibody crossreacting to BrU (Exbio) for 30 min at room temperature in the dark. After another washing step in PBS cells were stained by secondary antimouse-FITC antibody (Sigma). Following the staining, cells were washed with PBS and fixed with 1% PBS buffered paraformaldehyde with 0.05% of NP-40 for 1 hour. Cells were washed by PBS, incubated with propidium iodide (0.1 mg/mL) and RNAse A (0.5 mg/mL) for 1 h at room temperature in the dark, and finally analyzed by flow cytometry using a 488 nm single beam laser (FACS Calibur, Becton Dickinson).

| Structure (SMILES) | IC50 (CCRF-CEM) [µM] | IC50 (CEM-DNR) [µM] | IC50 (K562) [µM] | IC50 (K562-TAX) [µM] | IC50 (A549) [µM] | IC50 (HCT116) [µM] | IC50 (HCT116p53-/-) [µM] | IC50 (U2OS) [µM] | IC50 (BJ) [µM] | IC50 (MRC-5) [µM] | G0/G1 (%) (CCRF-CEM cells [1]; 1 × IC50) | G2/M (%) (CCRF-CEM cells [1]; 1 × IC50) | S (%) (CCRF-CEM cells [1]; 1 × IC50) | G0/G1 (%) (CCRF-CEM cells [1]; 5 × IC50) | G2/M (%) (CCRF-CEM cells [1]; 5 × IC50) | S (%) (CCRF-CEM cells [1]; 5 × IC50) | Sub G1 (%) (CCRF-CEM cells [1]; 5 × IC50) | pH3Ser10 (%) (CCRF-CEM cells [2]; 1 × IC50) | pH3Ser10 (%) (CCRF-CEM cells [2]; 5 × IC50) | effect on DNA synthesis (in words) (CCRF-CEM cells [3]) | further results |
| --- | --- | --- | --- | --- | --- | --- | --- | --- | --- | --- | --- | --- | --- | --- | --- | --- | --- | --- | --- | --- | --- |
| C=C(Cn1cc(-c2ccccc2C=O)nn1)[C@@H]1CC[C@]2(C(=O)O)CC[C@]3(C)C(CCC4[C@@]5(C)CC[C@H](OC(C)=O)C(C)(C)C5CC[C@]43C)C12 (stereo partly drawn) [Compound 9b] | 3.3 | 4 | 3.6 | 3.9 | 14.8 | 6.4 | 9.5 | 12.8 | 31.3 | 28.9 | 58.6 | 19.5 | 21.9 | 35.7 | 18.1 | 46.2 | 51.9 | 1.19 | 0.37 | inhibiting | inhibition of the cell cycle in G0/G1 (in words) (CCRF-CEM cells [1]): highest accumulation; Sub G1 (%) (CCRF-CEM cells [1]; 1 × IC50): 10.8%; DNA synthesis (CCRF-CEM cells [3]; 1 × IC50, BrDU incorporation): 22.6; DNA synthesis (CCRF-CEM cells [3]; 5 × IC50, BrDU incorporation): 0.55; effect on RNA synthesis (in words) (CCRF-CEM cells [4]): inhibiting; RNA synthesis (CCRF-CEM cells [4]; 1 × IC50, BrU incorporation): 15.8; RNA synthesis (CCRF-CEM cells [4]; 5 × IC50, BrU incorporation): 0.08 |
| C=C(Cn1cc(-c2ccccc2C=O)nn1)[C@@H]1CC[C@]2(C(=O)O)CC[C@]3(C)C(CCC4[C@@]5(C)CC[C@H](O)C(C)(C)C5CC[C@]43C)C12 (stereo partly drawn) [Compound 11b] | 8.5 | 11.5 | > 50 | 13.7 | > 50 | 26.3 | 26.9 | > 50 | > 50 | > 50 | 59.0 | 15.7 | 25.3 | 45.5 | 19.1 | 35.4 | 65.6 | 0.88 | 1.19 | inhibiting | DNA synthesis (CCRF-CEM cells [3]; 1 × IC50, BrDU incorporation): 20.0; DNA synthesis (CCRF-CEM cells [3]; 5 × IC50, BrDU incorporation): 6.40; effect on RNA synthesis (in words) (CCRF-CEM cells [4]): inhibiting; RNA synthesis (CCRF-CEM cells [4]; 1 × IC50, BrU incorporation): 48.3; RNA synthesis (CCRF-CEM cells [4]; 5 × IC50, BrU incorporation): 38.1 |
| C=C(CN=[N+]=[N-])[C@@H]1CC[C@]2(C(=O)O)CC[C@]3(C)C(CCC4[C@@]5(C)CC[C@H](OC(C)=O)C(C)(C)C5CC[C@]43C)C12 (stereo partly drawn) [Compound 6, 3β-O-Acetyl-30-azidobetulinic acid] | 7.4 | 19.2 | 12.3 | 15.5 | 17.6 | 18.6 | 19.7 | 20.9 | 26.7 | 20 | 49.3 | 20.3 | 30.4 | 41.4 | 23.8 | 34.8 | 70.0 | 1.80 | 2.68 | inhibiting | Sub G1 (%) (CCRF-CEM cells [1]; 1 × IC50): 10.7%; DNA synthesis (CCRF-CEM cells [3]; 1 × IC50, BrDU incorporation): 33.0; DNA synthesis (CCRF-CEM cells [3]; 5 × IC50, BrDU incorporation): 1.00; effect on RNA synthesis (in words) (CCRF-CEM cells [4]): inhibiting; RNA synthesis (CCRF-CEM cells [4]; 1 × IC50, BrU incorporation): 14.1; RNA synthesis (CCRF-CEM cells [4]; 5 × IC50, BrU incorporation): 1.70 |
| C=C(CN=[N+]=[N-])[C@@H]1CC[C@]2(C(=O)O)CC[C@]3(C)C(CCC4[C@@]5(C)CC[C@H](O)C(C)(C)C5CC[C@]43C)C12 (stereo partly drawn) [Compound 8, 30-azidobetulinic acid] | 21.7 | 25.8 | 17.2 | 23.9 | 23 | 25.5 | 24 | 25 | 34 | 19.1 | – | – | – | – | – | – | – | – | – | – | – |
| C=C(C)[C@@H]1CC[C@]2(C(=O)O)CC[C@]3(C)[C@H](CC[C@@H]4[C@@]5(C)CC[C@H](O)C(C)(C)[C@@H]5CC[C@]43C)[C@@H]12 [Compound 1, betulinic acid] | 45.5 | 45.4 | 40 | 43.1 | 43.4 | 38 | > 50 | > 50 | 37.6 | 32.9 | – | – | – | – | – | – | – | – | – | – | – |
| C=C(Cn1cc(-c2ccc(C(C)(C)C)cc2)nn1)[C@@H]1CC[C@]2(C(=O)O)CC[C@]3(C)C(CCC4[C@@]5(C)CC[C@H](OC(C)=O)C(C)(C)C5CC[C@]43C)C12 (stereo partly drawn) [Compound 9f] | 34.5 | 15 | 15.6 | 23.4 | 45 | 41.9 | 48.4 | 45.8 | > 50 | > 50 | – | – | – | – | – | – | – | – | – | – | – |

Source: publication PMC5291411, “Cytotoxic conjugates of betulinic acid and substituted triazoles prepared by Huisgen Cycloaddition from 30-azidoderivatives” (PLoS ONE, 2017)
